{"source": "patent US8415156B2", "about": "“Recombinant laminin-521” (Biolamina AB, priority 2010, dated 2013)", "key": {"[1]": {"system": "hES cell lines HS181 and H1", "assay": "Karyotyping", "format": "cell-based, human", "conditions": "HS181 12 passages and H1 10 passages in O3; H1 7 passages in TeSR2", "procedure": "Karyotyping of the cell lines was carried out using standard Q-banding techniques. Samples of cells were treated with colcemid KaryoMAX (0.1 μg/ml; Gibco Invitrogen Corporation) for up to 4 hours, followed by dissociation with Trypsin/EDTA solution (Gibco Invitrogen Corporation). The cells were pelleted via centrifugation and re-suspended in pre-warmed 0.0375 M KCl hypotonic solution and incubated for 10 minutes. Following centrifugation, the cells were resuspended in fixative (3:1 methanol:acetic acid). Metaphase spreads were prepared on glass microscope slides and G-banded by brief exposure to trypsin and stained with 4:1 Gurr's/Leishmann's stain (Sigma-Aldrich Co.). A minimum of 10 metaphase spreads were analyzed and additional 20 were counted."}, "myosin light chain (MLC)": {"system": "myosin light chain (MLC)", "assay": "Western blot of phosphorylated myosin light chain", "format": "cell-based, human", "conditions": "one and six hours after plating", "procedure": "HS181 cells were trypsinized into single cell suspension as described above. For inhibition experiments, the cells were kept in O3 medium with blocking antibodies or pathway inhibitors for 30 minutes and then 450K cells were plated on 35 mm dishes precoated with the appropriate matrix coating. For other experiments, same number of cells was plated directly after trypsinization. […] After two washings in ice-cold PBS, the plates with cells were snap frozen in liquid nitrogen and stored at −80° C. To prepare samples for western blots and ELISA, the plates were slowly thawed and kept on ice with 100-150 μl of lysis buffer (50 mM Tris-HCl, pH7.5, 150 mM NaCl, 0.5% deoxycholate, 0.5% SDS, 1% Triton X-100, 1% Igepal, Complete™ (Roche) and Phospho-Stop™ (Roche)) on top. Then, the cells were scraped, pipetted and sheared through a 27G ¾″ needle. After that, the cell pellets were clarified by centrifugation at 16,100 rcf for 15 minutes at 4° C. For western blots, 4-12% gradient gels were used for SDS electrophoresis and the proteins were transferred to PVDF membranes. The membrane was hybridized with the antibody of interest according to the manufacturer's instructions. Chemoluminescent HRP-substrate from Amersham Biosciences was used for visualization. For the densitometry analysis the films were scanned at 2,400 dpi and analyzed by the Chemilmager5500 program (1D-Multi Line densitometry mode). […]"}, "Integrin α6β1": {"target": "Integrin α6β1 (Homo sapiens, UniProt P05556+P23229)", "sequence (P23229 24-1130)": "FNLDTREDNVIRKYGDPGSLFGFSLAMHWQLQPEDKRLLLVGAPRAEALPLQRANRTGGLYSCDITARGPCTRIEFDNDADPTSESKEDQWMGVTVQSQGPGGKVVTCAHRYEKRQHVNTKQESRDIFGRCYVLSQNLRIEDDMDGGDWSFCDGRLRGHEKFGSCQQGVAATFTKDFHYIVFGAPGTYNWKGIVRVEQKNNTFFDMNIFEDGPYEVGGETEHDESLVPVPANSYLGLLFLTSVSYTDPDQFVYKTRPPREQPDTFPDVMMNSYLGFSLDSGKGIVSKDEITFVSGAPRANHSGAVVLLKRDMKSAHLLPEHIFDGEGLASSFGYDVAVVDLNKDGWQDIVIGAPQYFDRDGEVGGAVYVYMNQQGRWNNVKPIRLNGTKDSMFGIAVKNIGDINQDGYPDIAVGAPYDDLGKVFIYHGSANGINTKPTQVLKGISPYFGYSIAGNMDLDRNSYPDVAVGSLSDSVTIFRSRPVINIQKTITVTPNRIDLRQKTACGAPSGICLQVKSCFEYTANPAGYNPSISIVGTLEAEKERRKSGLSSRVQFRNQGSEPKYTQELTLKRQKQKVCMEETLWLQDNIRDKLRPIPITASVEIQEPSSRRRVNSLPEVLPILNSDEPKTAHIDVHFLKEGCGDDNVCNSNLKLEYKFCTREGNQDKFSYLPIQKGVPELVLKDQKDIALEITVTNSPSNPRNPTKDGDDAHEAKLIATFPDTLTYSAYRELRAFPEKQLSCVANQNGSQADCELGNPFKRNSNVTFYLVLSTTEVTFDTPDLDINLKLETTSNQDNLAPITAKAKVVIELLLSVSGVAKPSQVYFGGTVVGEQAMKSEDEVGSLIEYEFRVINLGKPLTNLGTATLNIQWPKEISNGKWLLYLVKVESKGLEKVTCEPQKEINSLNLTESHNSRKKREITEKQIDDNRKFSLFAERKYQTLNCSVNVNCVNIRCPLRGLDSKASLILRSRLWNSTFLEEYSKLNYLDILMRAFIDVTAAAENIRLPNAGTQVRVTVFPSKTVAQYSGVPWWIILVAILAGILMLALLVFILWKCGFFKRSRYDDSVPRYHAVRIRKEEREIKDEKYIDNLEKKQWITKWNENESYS", "sequence (P05556 21-798)": "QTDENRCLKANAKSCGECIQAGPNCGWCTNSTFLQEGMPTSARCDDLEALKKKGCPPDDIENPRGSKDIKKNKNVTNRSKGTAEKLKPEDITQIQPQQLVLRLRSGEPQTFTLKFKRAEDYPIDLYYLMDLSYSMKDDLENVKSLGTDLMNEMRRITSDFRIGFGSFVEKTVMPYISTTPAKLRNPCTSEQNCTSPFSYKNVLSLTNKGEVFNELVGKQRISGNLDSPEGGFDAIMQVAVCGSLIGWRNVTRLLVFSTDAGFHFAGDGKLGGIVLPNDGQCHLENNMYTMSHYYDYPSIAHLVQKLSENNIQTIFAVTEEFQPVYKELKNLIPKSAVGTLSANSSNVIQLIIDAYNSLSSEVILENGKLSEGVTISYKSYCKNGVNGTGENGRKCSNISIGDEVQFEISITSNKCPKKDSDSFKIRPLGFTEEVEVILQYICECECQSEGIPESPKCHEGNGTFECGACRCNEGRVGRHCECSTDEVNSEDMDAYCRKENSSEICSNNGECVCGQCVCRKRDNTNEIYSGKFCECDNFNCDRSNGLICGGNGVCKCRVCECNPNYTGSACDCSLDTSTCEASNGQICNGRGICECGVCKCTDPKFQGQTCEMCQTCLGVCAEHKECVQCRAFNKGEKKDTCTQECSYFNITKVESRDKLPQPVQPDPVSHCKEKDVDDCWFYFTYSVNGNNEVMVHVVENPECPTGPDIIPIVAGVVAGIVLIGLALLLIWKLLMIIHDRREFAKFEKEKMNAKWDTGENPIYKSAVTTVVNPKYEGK", "conditions": "cited from earlier work"}, "hES cells [2]": {"system": "hES cells", "assay": "Clonal survival of individualized hES cells (Example 4)", "format": "cell-based, human", "conditions": "mTeSR1; 250 cells per cm^2; 5 days; alkaline phosphatase staining", "procedure": "hES cells were plated in mTeSR1 medium on different coatings at a density of 250 cells per cm^2 and monitored after 5 days in culture using an alkaline phosphatase staining kit.\nNext, combinations of laminin-521 and E-Cadherin were tested to determine whether the combinations could sustain clonal survival of the cells. Fixed amounts of laminin-521 were used for the cell culture dish coating in combination with titrated E-Cadherin.\nAdditional tests were performed to test the effects of various modifications to the mTeSR1 medium. A mixture of E-Cadherin to laminin-521 in a ratio of about 1:10 w/w was used to coat the plates. […] Time-lapse photography of the cells confirmed that laminin-521/E-Cadherin coatings facilitated cell survival through proliferation of the single cells, not through the aggregation of different cells."}, "hES cells [3]": {"system": "hES cells", "assay": "In vivo imaging and migration assay", "format": "cell-based, human", "procedure": "24-well plates were coated by extracellular matrix proteins and blocked by O3 medium containing bovine serum albumin. The ES cells were plated at cell density of 30,000-40,000 cells/cm^2 onto extracellular matrix-coated plates and left to adhere for half an hour in a cell incubator. After that, the plate was transferred into high content imaging system Operetta (PerkinElmer) equipped with environmental control unit, which allowed to keep 37° C., 5% CO2. For two movies that were made, the brightfield images were taken once in 15 minutes during 24 hours after plating using Harmony software (PerkinElmer), exported, and analyzed using ImageJ software (NIH, the US). For migration assay the images were taken every seven minutes during 18 hours after plating. Images acquired between the fifth and seventh hours after plating were analyzed using MTrackJ plug-in (University Medical Center, Rotterdam, The Netherlands). 100 attached cells on each coating were traced and mean distances from the current to the previous point of the track were calculated. Error bars show standard error of the mean s.e.m. (n=100)."}, "[4]": {"system": "Oct4, Nanog, SSEA4; PAX6, SOX17, SOX7", "assay": "Expression of pluripotency and differentiation markers (Example 2)", "format": "cell-based, human", "conditions": "compared with Matrigel passed as small clumps", "procedure": "For immunofluorescence studies, ES cells were cultured and fixed in 8-well slide chambers (BD Biosciences) or 96-well plate wells by 4% paraformaldehyde, permeabilized by 0.1% Triton-X and blocked by 10% bovine fetal serum (GIBCO Invitrogen Corporation) in phosphate-saline buffer (PBS) containing 0.1% Tween-20 (Sigma-Aldrich, St. Louis, www.sigmaaldrich.com) for one hour. Incubation with primary antibody was performed for 1.5 hours at room temperature. Incubation with secondary antibody and 4,6-diamidino-2-phenylindole (DAPI, Molecular Probes) was performed for 40 minutes. Between incubations, the specimens were washed with 0.1% Tween-20 in PBS buffer three to five times. Specimens were preserved in a fluorescence mounting medium (Dako, Glostrup, Denmark, http://www.dako.com), and observed under a fluorescence microscope (Leica, Heerbrugg, Switzerland, http://www.leica.com).\nTotal RNA was isolated using Absolutely RNA Microprep Kit (Stratagene, La Jolla Calif., www.stratagene.com) according to the manufacturer's instructions. cDNA was synthesized using 0.2 μg of total RNA in 20 μl reaction mixture, containing oligo(dT)12-18 primers and Superscript II reverse transcriptase (GIBCO Invitrogen Corporation), according to the manufacturer's instructions. […] All data was analyzed with 7300 System SDS Software v 1.4. […]"}}, "data": [{"substance": "LN-521: protein formed by joining α5, β2 and γ1 chains together; human recombinant, produced in HEK293 cells", "values": [{"measurement": "karyotype", "setting": "[1]", "value": "normal"}, {"measurement": "phosphorylation of MLC compared with cells on Matrigel and LN-111", "setting": "myosin light chain (MLC)", "value": "even higher"}, {"measurement": "binding affinity of integrin α6β1", "setting": "Integrin α6β1", "value": "higher than that for LN-111"}, {"measurement": "clonal survival of individualized hES cells", "setting": "hES cells [2]", "value": "Neither laminin-521 nor E-Cadherin alone permitted efficient clonal survival"}, {"measurement": "migration of cells (in vivo imaging) compared with Matrigel", "setting": "hES cells [3]", "value": "much faster"}, {"measurement": "motility of hES cells between the fifth and seventh hours after plating", "setting": "hES cells [3]; compared with Matrigel, LN-111, LN-511", "value": "higher than that of the cells on other coatings"}, {"measurement": "expression levels of pluripotency markers Oct4, Nanog, and SSEA4", "setting": "[4]", "value": "stable expression levels"}]}]}
